Tests used:
[1] = Encapsulation yield, indirect quantification in external water after centrifugation; format: physicochemical; settings: for encapsulation yield (plateau): hydrophilic molecule in aqueous core, tp = 2 h, highest monomer (TDI) contents
Description: (i) Hydrophilic materials, eventually, have to be shared out into the w/o nanoemulsions water droplets, and it may be done right from the start included in the water phase of the macro-emulsions preparations. Another higher effective manner consists in injecting a very small volume (no more than 2% (v./v.)) of very concentrated aqueous solution, in the microemulsion maintained at the PIT, after the temperature cycling, and before the isopentane dilution. The droplet injected in the (still) stirred microemulsion, very rapidly integrates the aqueous part of the bicontinuous network. As a result of the oil dilution, the nanoemulsion immediately forms, allowing a very homogeneous dispersion in oil of the injected hydrophilic molecule. Incorporating the hydrophilic species through this original manner, eventually prevents the molecules degradation during processing potentially due to the temperature cycling treatment. The hydrophilic model molecules were chosen with very different molecular weight: The first one is a labile dye, methylene blue (MB), the second is a protein, the bovin serum albumin fluorecein isothiocyanate labeled (BSA-FITC) and the last one is a fluorescent compound, Doxorubicin Chlorhydrate (DOX), which is an anti-cancer drug.
(ii) On the other hand, the lipophilic species were introduced in the oil phase of the nanoemulsion, after the chosen time of polymerization (to maximally prevent the potential interactions with the monomer), and before the stage of isopentane evaporation. Thereby, after the complete isopentane evaporation, the lipophilic added materials will be equally shared onto the droplets enclosed in the residual mineral oil, that is, trapped in the amorphous oil/non-ionic surfactant matrix. It finally appears as a marker of the residual mineral oil location, and determining a significant encapsulation yield should support the proposed multi-functional water/oil structure. […] It is important to note here, that these processes of nanocapsule formulation containing hydrophilic and lipophilic agents can be still considered as only involving a low quantity of energy (often called ‘low-energy’ methods). […]
All the quantifications were performed following an indirect method, after separating the external water to the nanocapsules by centrifugation (30 min, 14500 rpm), it was freeze-dried (RP2V, SGD, Le Coudray Saint-Germer, France) to ensure the destruction of the potentially remaining nanocapsules (and also to prevent their additional light adsorption in the quantification process). Next, the freeze-dried samples are solubilized in dichloromethane (DCM), and the different incorporated molecules except DOX which are present in the external water are simply quantified using a Spectrophotometer UV-visible Uvikon 922 Spectrophotometer (Bio-Tek Koutron instruments, Saint-Quentin-en-Yvelines, France). DOX was quantified using a spectrofluorimeter (Fluoroskan Ascent FL, type 374, Thermo Electron Corporation, Finland). […]
Owing to the real challenge that constitutes the encapsulation of hydrophilic agent into nanocapsules themselves dispersed in aqueous continuous phase, the first result will concern the extent in which the selected hydrophilic species, methylene blue and BSA-FITC, can be encapsulated into such colloids. The molecules incorporation during the nanoemulsion generation step as well as the molecule quantification for determining the encapsulation yield, follow the above-described procedures. […]

[2] = Doxorubicin release kinetics from particles (P), dialysis against PBS; format: physicochemical; settings: DOX-loaded particles (P), dialysis 15 kDa membrane, PBS pH 7.4, 37° C.
Protocol: To establish the drug release kinetics (see FIG. 8), 2 mL of freshly prepared suspension containing DOX-loaded particle (P), enclosed into a dialysis 15 kDa membrane (Spectra/Por® Membranes, Fisher Bioblock Scientific, Illkirch, France), were added to 40 mL of phosphate buffered saline (PBS, pH 7.4) from Sigma. The flack was weakly mechanically stirred (125 rpm) in darkness, at 37° C. (in a boiler, Julabo SW22, JULABO Labortechnik GmbH, Seelbach, Germany). Next, 500 μL of release medium were collected at specified time points and the DOX concentrations were determined by spectrofluorimetry, as previously described. This collected volume was systematically replaced by the same volume of fresh PBS for insuring the “sink” experimental conditions.

NIH/3T3 cells = test: Cytotoxicity of particles (P) without active ingredient, cell survival by MTT test; format: cell-based, Mus musculus; design: unit: % of control; settings: DMSO, control = 100.00
Protocol: The cytotoxicity of particles (P) prepared according to 1.2 hereabove—without any active ingredient encapsulated (hereafter called NCB)—was assessed on NIH/3T3 cells (fibroblasts of mice Mus musculus). The […] were exposed to various particle concentrations, during 4, 24, 48 or 72 hours. The cell survival was determined by the MTT test.

## Oc1ccc2ccccc2c1N=Nc1ccc(N=Nc2ccccc2)cc1 [RS, red Soudan III]
[1]; lipophilic molecule in oil shell, simultaneously encapsulated with MB, tp 2 hours, no influence of monomer amount
  encapsulation yield: around 0.92

## COc1cccc2c1C(=O)c1c(O)c3c(c(O)c1C2=O)C[C@@](O)(C(=O)CO)C[C@@H]3O[C@H]1C[C@H](N)[C@H](O)[C@H](C)O1 [DOX, Doxorubicin Chlorhydrate]
[1]; in aqueous droplets (no monomer)
  yield of encapsulated doxorubicin: 30%
[1]; in polymeric nanocapsules (interfacial polymerization with tolylene 2,4-diisocyanate)
  yield of encapsulated doxorubicin: 70%
[2]
  release with time (maximum given by the curve fit): ~100%

## Bovine Serum Albumin-Fluorescein Isothiocyanate labeled [BSA-FITC]
[1]
  encapsulation yield (plateau): about 0.9

## C[S+](C)[O-] [DMSO]
NIH/3T3 cells; 4 H exposure
  cell survival (MTT test), mean: 46.75
NIH/3T3 cells; 24 H exposure
  cell survival (MTT test), mean: 10.22
NIH/3T3 cells; 48 H exposure
  cell survival (MTT test), mean: 4.79
NIH/3T3 cells; 72 H exposure
  cell survival (MTT test), mean: 5.00

## CN(C)c1ccc2nc3ccc(=[N+](C)C)cc-3sc2c1 [MB, Methylene Blue]
[1]
  encapsulation yield (plateau): about 0.9

Source: patent publication US9522121B2, “Aqueous-core lipid nanocapsules for encapsulating hydrophilic and/or lipophilic molecules” (UNIVERSITE D'ANGERS, priority 2007, dated 2016)
